These results are taken from PMC3792221 (Biomolecules & Therapeutics, 2012).

One series concerns neural stem cells. The note with it: ref Guan et al., 2009; cited from earlier work.
Series [1] deals with T1, MAO-A (rat brain mitochondrial MAO) (Rattus norvegicus, UniProt P21396).
T1 sequence (P21396 1-526): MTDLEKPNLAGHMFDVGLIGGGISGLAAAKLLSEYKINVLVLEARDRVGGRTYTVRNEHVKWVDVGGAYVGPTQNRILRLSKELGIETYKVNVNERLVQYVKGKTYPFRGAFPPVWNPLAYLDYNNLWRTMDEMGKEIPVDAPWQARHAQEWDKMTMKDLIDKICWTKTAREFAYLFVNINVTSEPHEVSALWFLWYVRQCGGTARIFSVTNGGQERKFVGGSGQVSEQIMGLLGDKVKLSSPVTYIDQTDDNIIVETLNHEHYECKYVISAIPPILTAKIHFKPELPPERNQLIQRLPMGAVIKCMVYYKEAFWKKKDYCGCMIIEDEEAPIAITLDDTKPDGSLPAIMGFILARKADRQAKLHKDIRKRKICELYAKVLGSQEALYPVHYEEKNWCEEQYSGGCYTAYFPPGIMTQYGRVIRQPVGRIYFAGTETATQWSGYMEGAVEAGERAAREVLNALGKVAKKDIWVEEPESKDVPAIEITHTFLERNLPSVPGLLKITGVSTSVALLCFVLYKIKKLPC
Kind of series: MAO-A inhibition assay in vitro. The format is biochemical.

The target in series [2] is T2, MAO-B (rat liver mitochondrial MAO) (Rattus norvegicus, UniProt P19643).
T2 sequence (P19643 1-520): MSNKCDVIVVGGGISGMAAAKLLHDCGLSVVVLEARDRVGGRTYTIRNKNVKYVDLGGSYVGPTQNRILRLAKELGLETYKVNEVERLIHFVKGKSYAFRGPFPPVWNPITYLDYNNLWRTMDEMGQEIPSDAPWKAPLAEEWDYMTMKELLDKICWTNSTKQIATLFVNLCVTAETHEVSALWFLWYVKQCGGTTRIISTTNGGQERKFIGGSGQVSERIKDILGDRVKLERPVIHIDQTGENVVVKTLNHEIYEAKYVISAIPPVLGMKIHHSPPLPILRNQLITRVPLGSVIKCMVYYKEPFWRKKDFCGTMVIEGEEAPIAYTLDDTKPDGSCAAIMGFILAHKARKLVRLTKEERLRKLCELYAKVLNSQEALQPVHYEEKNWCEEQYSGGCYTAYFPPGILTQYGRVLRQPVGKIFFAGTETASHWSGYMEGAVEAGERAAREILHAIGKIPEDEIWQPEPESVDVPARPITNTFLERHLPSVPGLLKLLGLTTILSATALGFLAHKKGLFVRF
Kind of series: MAO-B inhibition assay in vitro. Format: biochemical.

In another series the target is T3, bovine adrenal DBH (Bos taurus, UniProt P15101).
T3 sequence (P15101 1-610): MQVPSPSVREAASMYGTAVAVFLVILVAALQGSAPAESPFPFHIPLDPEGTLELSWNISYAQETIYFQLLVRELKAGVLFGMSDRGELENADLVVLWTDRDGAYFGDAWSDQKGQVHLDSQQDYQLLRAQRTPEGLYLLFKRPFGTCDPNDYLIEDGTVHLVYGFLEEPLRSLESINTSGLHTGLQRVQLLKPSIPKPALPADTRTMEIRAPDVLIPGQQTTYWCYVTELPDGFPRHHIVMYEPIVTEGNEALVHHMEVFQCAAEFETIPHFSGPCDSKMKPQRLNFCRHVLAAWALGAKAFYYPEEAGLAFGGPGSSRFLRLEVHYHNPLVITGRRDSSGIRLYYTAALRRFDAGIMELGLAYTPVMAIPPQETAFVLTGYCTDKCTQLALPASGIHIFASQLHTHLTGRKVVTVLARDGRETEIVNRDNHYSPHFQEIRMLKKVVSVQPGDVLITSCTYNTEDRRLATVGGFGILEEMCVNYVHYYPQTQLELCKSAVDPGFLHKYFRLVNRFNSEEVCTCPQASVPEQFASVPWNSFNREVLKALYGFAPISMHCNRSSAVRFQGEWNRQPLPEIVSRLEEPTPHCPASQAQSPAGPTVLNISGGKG
The series is described as follows: DBH inhibition assay in vitro. Format: biochemical.

The conditions of series [3]: isolated geniposide; ref Hou et al., 2008; Lu et al., 2011; cited from earlier work.
Setting [4] is: IC50 value MAO-A, Table 1, 1 mM serotonin substrate.
[5] abbreviates: read-out: MAO-A inhibitory activity.
[6] abbreviates: read-out: MAO-B inhibitory activity.
The mark [7] stands for this setting: IC50 value DBH, Table 1, 120 mM tyramine substrate.
Where [8] appears, read: read-out: DBH inhibitory activity.

Bounds are passed on as bounds.

`O=C(O)c1ccc(O)c(O)c1` [Compound 1, protocatechuic acid]: the “Apoptosis of neural stem cells” value in the series on neural stem cells is listed as “inhibit apoptosis”. Moreover, the “Proliferation of neural stem cells” value in the series on neural stem cells is given as “increase proliferation”. The IC50 (in general, the concentration needed to halve the response being measured) in series [1] (IC50 MAO-A (abstract)) came to 2410 µM; in series [1] (setting [4]), 2410 µM; in series [2], 300 µM; against bovine adrenal DBH (setting [7]), 334 µM. The inhibition at 50 µg/mL turned out to be 7.3 ± 2.6% in series [1] (setting [5]), 50.4 ± 5.9% in series [2] (setting [6]) and 49.2 ± 3.1% on bovine adrenal DBH (setting [8]). Besides, the inhibition at 100 µg/mL in series [1] (setting [5]) is 12.8 ± 4.8%; in series [2] (setting [6]), 71.6 ± 9.3%; at bovine adrenal DBH (setting [8]), 64.1 ± 6.8%. Besides, the inhibition at 500 µg/mL in series [1] (setting [5]) was found to be 67.4 ± 5.2%; in series [2] (setting [6]), 108 ± 1.3%; on bovine adrenal DBH (setting [8]) it was 97.2 ± 2%. Besides, the “Specific activity on MAO-B relative to that on MAO-A” value in series [2] (from Table 1) was “about 8 times”.
With `COC(=O)C1=CO[C@@H](O[C@@H]2O[C@H](CO)[C@@H](O)[C@H](O)[C@H]2O)[C@@H]2C(CO)=CC[C@H]12` [Compound 2, geniposide], the half-maximal inhibitory concentration (IC50) in series [1] (setting [4]) was above 12900 µM. Further, in series [2], the IC50 came out at 223 µM. In series [2] (setting [6]), the inhibition at 4 µg/mL worked out at 9.2 ± 1.2%, the inhibition at 20 µg/mL was determined as 16 ± 0.6%, the inhibition at 50 µg/mL was 42.8 ± 2.2% and the inhibition at 100 µg/mL was 52.2 ± 1.5%. Moreover, the Absorption percentage result in series [3] was “very low”. The compound also came in with an IC50 against bovine adrenal DBH (setting [7]) above 12900 µM.
With `C[C@H]1[C@H](C)CC[C@]2(C(=O)O)CC[C@]3(C)C(=CC[C@@H]4[C@@]5(C)CC[C@H](O)C(C)(C)[C@@H]5CC[C@]43C)[C@H]12` [Compound 5, ursolic acid], the “MAO-A inhibition (in words)” value in series [1] is “no inhibition”. Moreover, the IC50 is above 11000 µM in series [1] (setting [4]), 780 µM in series [2], 215 µM against bovine adrenal DBH (IC50 DBH) and 214 µM on bovine adrenal DBH (setting [7]). Besides, the values for the inhibition at 50 µg/mL (in series [2] (setting [6]); on bovine adrenal DBH (setting [8])) were 17.1 ± 1.1% and 33.2 ± 6.9%, respectively. For the same compound, the inhibition at 100 µg/mL in series [2] (setting [6]) was 28.7 ± 8%; at bovine adrenal DBH (setting [8]) it was 51.2 ± 5.9%. The inhibition at 2 µg/mL at bovine adrenal DBH (setting [8]) was 18.2 ± 7.6%. The inhibition at 10 µg/mL at bovine adrenal DBH (setting [8]) turned out to be 20.8 ± 10.7%.
